Consider 30 compounds from patent US9434711B2 (Janssen Pharmaceutica, NV, priority 2007, dated 2016).

This assay concerns the target canine TRPM8 (Canis lupus familiaris, UniProt Q1A7N1). Description: In Vitro Canine TRPM8 Functional Assay (Ca2+ fluorescence, icilin activation). It counts as cell-based. Particulars: for inhibition at 0.2 µM: read-out: % Inh @ 0.2; for pIC50: read-out: IC50; for inhibition at 0.5 µM: compound at 0.5 μM, read-out: % Inh @ 0.5. The method in brief: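 HEK293 cells stably expressing canine TRPM8 were loaded with Calcium 3 dye (35 min at 37 °C, then 25 min at room temperature). Compound was added and Ca2+ fluorescence was read for 5 min before icilin at a concentration giving about 80% maximal response. EC50/IC50 came from eight-point dose-response curves, quadruplicate wells.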

Where [1] appears, read: compound at 0.2 μM, canine TRPM8, icilin activation.
Where [2] appears, read: HEK293 cells stably expressing canine TRPM8, icilin activation, eight-point dose-response.
Setting [3] is: canine TRPM8, icilin activation.

pIC50: −log10 of the molar value. Where two headings read alike, the source gives them in different places.

canine TRPM8, sequence (Q1A7N1 1-1104): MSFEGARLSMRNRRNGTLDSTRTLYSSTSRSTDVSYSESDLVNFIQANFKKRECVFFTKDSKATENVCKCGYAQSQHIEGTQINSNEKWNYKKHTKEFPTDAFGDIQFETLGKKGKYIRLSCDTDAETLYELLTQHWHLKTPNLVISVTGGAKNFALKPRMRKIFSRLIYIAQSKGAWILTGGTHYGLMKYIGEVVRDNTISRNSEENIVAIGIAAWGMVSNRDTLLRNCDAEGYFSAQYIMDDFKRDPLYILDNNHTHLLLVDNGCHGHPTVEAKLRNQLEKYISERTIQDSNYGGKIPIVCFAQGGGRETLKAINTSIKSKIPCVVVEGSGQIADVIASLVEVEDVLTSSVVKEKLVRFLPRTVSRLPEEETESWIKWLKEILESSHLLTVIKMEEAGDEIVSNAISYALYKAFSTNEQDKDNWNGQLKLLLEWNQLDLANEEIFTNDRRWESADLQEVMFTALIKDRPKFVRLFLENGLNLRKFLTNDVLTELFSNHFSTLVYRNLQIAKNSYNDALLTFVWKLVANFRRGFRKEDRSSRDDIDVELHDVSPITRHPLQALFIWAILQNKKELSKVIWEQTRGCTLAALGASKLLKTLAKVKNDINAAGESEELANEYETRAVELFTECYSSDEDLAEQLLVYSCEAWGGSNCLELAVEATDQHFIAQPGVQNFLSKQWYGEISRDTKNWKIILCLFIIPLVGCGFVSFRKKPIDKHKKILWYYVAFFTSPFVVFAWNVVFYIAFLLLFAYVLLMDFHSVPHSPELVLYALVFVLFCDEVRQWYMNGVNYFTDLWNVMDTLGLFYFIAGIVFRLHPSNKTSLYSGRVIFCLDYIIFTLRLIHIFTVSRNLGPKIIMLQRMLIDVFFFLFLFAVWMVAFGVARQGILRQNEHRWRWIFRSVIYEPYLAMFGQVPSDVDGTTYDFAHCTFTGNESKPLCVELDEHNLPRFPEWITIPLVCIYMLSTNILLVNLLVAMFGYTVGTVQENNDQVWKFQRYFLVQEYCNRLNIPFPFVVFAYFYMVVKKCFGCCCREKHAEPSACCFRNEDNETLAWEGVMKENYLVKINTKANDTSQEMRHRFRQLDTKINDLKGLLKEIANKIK

With `COC(=O)c1ccc(S(=O)(=O)N(CCCC(F)(F)F)c2sc3ccccc3c2Cl)cc1` [Compound 530, N-(3-Chloro-benzo[b]thiophen-2-yl)-N-(4,4,4-trifluoro-butyl)-4-carbomethoxy-benzenesulfonamide], the inhibition at 0.2 µM under setting [1] worked out at 54%.
In general, pIC50 refers to the IC50 on a negative log10 scale, so that one unit is a factor of ten. As for `CSCCN(c1sc2ccccc2c1Br)S(=O)(=O)c1ccccc1` [Compound 260, N-(3-Bromo-benzo[b]thiophen-2-yl)-N-(2-methylsulfanyl-ethyl)-benzenesulfonamide], the pIC50 under setting [2] was 7.30. Under setting [1], the inhibition at 0.2 µM was 86%.
For `O=S(=O)(c1cccc(F)c1)N(Cc1ccc(F)c(F)c1)c1sc2ccccc2c1Br` [Compound 155, N-(3-Bromo-benzo[b]thiophen-2-yl)-N-(3,4-difluoro-benzyl)-3-fluoro-benzenesulfonamide], under setting [2], the pIC50 was 8.40. Further, the inhibition at 0.5 µM under setting [3] was 99%.
As for `O=c1[nH]c(-c2ccc(S(=O)(=O)N(CCC3CC3)c3cc4ccccc4s3)cc2)ns1` [Compound 642, N-(Benzo[b]thiophen-2-yl)-N-(cyclopropyl-ethyl)-4-(5-oxo-4,5-dihydro-[1,2,4]thiadiazol-3-yl)-benzenesulfonamide], the pIC50 under setting [2] was 7.39. Further, the inhibition at 0.2 µM under setting [1] amounted to 90%.
With `CCS(=O)(=O)N(C[C@@H]1CCC(=O)N1)c1sc2ccccc2c1C` [Compound 109, N-(3-Methyl-benzo[b]thiophen-2-yl)-N-(5-oxo-(S)-pyrrolidin-2-ylmethyl)-ethanesulfonamide], the inhibition at 0.2 µM under setting [1] was 14%.
Turning to `CC(=O)CCCN(c1sc2ccccc2c1Br)S(=O)(=O)c1ccccc1` [Compound 253, N-(3-Bromo-benzo[b]thiophen-2-yl)-N-(4-oxo-pentyl)-benzenesulfonamide], the pIC50 under setting [2] is 7.56. The inhibition at 0.2 µM under setting [1] was 101%.
In the case of `CCCCN(C1=Cc2ccccc2S1(=O)=O)S(=O)(=O)c1ccc(C(=O)OC)cc1` [Compound 430, N-(Butyl)-N-(1,1-dioxo-benzo[b]thiophen-2-yl)-4-carbomethoxy-benzenesulfonamide], under setting [1], the inhibition at 0.2 µM stood at 52%.
As for `O=C(O)c1ccc(S(=O)(=O)N(Cc2ccc(F)c(C(F)(F)F)c2)c2cc3ccccc3s2)c(F)c1` [Compound 686, N-(Benzo[b]thiophen-2-yl)-N-(4-fluoro-3-trifluoromethyl-benzyl)-2-fluoro-4-carboxy-benzenesulfonamide], under setting [2], the pIC50 is 8.33. Further, the inhibition at 0.2 µM under setting [1] is 105%.
Take `Cc1c(N(Cc2ccc(S(C)(=O)=O)cc2)S(=O)(=O)c2ccc(C(=O)O)cc2)sc2ccccc12` [Compound 492, N-(3-Methyl-benzo[b]thiophen-2-yl)-N-(4-methylsulfone-benzyl)-4-carboxy-benzenesulfonamide]: the pIC50 under setting [2] was 7.21. The “% Inh @ 0.2 (μM)” value under setting [1] is reported as 91%.
Regarding `CC(=O)c1c(N(Cc2ccc(F)c(F)c2)S(C)(=O)=O)sc2ccccc12` [Compound 229, N-(3-Acetyl-benzo[b]thiophen-2-yl)-N-(3,4-difluoro-benzyl)-methanesulfonamide], under setting [2], the pIC50 is 7.68. In addition, the inhibition at 0.2 µM under setting [1] worked out at 99%.
With `Cc1c(N(Cc2ccc(OC(F)(F)F)cc2)S(=O)(=O)c2ccc(-c3nnn[nH]3)cc2)sc2ccccc12` [Compound 785, N-(3-Methyl-benzo[b]thiophen-2-yl)-N-(4-trifluoromethoxy-benzyl)-4-(1H-tetrazol-5-yl)-benzenesulfonamide], the pIC50 under setting [2] is 8.66. The inhibition at 0.2 µM under setting [1] was 102%.
On to `Cc1c(N(CCCCC(F)(F)F)S(=O)(=O)c2cnccc2N2CCOCC2)sc2ccccc12` [Compound 788, N-(3-Methyl-benzo[b]thiophen-2-yl)-N-(5,5,5-trifluoro-pentyl)-4-morpholino-3-pyridyl-sulfonamide], for which the negative logarithm of the IC50 (pIC50) under setting [2] is 7.59.
Regarding `Cc1c(N(Cc2ccc(F)c(C(F)(F)F)c2)S(=O)(=O)c2cccc(C#N)c2)sc2ccccc12` [Compound 546, N-(4-Fluoro-3-trifluoromethyl-benzyl)-N-(3-methyl-benzo[b]thiophen-2-yl)-3-cyano-benzenesulfonamide], the pIC50 under setting [2] was 7.17. Also, under setting [1], the inhibition at 0.2 µM is 85.7%.
Taken in the same sequence, the figures for `CC(=O)c1ccc(S(=O)(=O)N(Cc2ccc(F)c(C(F)(F)F)c2)c2cc3ccccc3s2)cc1` [Compound 308, N-(Benzo[b]thiophen-2-yl)-N-(4-fluoro-3-trifluoromethyl-benzyl)-4-acetyl-benzenesulfonamide] were 7.16 and 92%.
As to `N#Cc1ccc(S(=O)(=O)N(Cc2ccc(F)c(C(F)(F)F)c2)c2cc3ccccc3s2)cc1` [Compound 411, N-(Benzo[b]thiophen-2-yl)-N-(4-fluoro-3-trifluoromethyl-benzyl)-4-cyano-benzenesulfonamide], under setting [1], the inhibition at 0.2 µM came to 43%.
For `Cc1c(N(Cc2ccc(F)c(C(F)(F)F)c2)S(=O)(=O)c2ccc(C(=O)O)c(F)c2)sc2ccccc12` [Compound 775, N-(3-Methyl-benzo[b]thiophen-2-yl)-N-(4-fluoro-3-trifluoromethyl-benzyl)-3-fluoro-4-carboxy-benzenesulfonamide], the pIC50 under setting [2] is 8.80. Also, the inhibition at 0.2 µM under setting [1] is 95%.
In the case of `CCS(=O)(=O)N(Cc1ccc(F)c(C(F)(F)F)c1)c1sc2ccccc2c1CNC` [Compound 347, N-(4-Fluoro-3-trifluoromethyl-benzyl)-N-(3-methylaminomethyl-benzo[b]thiophen-2-yl)-ethanesulfonamide], the pIC50 under setting [2] is 7.24. Besides, the inhibition at 0.2 µM under setting [1] is 95%.
Taken in the same sequence, the figures for `Cc1c(N(CCC2CC2)S(=O)(=O)c2ccccc2)sc2ccccc12` [Compound 614, N-(2-Cyclopropyl-ethyl)-N-(3-methyl-benzo[b]thiophen-2-yl)-benzenesulfonamide] were 8.13 and 101%.
Taken in the same sequence, the figures for `O=C(O)c1ccc(S(=O)(=O)N(Cc2ccc(F)c(C(F)(F)F)c2)c2sc3ccccc3c2C2CCC2)cc1` [Compound 698, N-(3-Cyclobutyl-benzo[b]thiophen-2-yl)-N-(4-fluoro-3-trifluoromethyl-benzyl)-4-carboxy-benzenesulfonamide] were 8.70 and 102%.
On to `CC(C)(O)c1c(N(CCCF)S(=O)(=O)c2ccccc2)sc2ccccc12` [Compound 830, N-(3-Fluoropropyl)-N-[3-(1-hydroxy-1-methyl-ethyl)-benzo[b]thiophen-2-yl]-benzenesulfonamide], for which the inhibition at 0.2 µM (0.2 μM compound, HEK293 cells stably expressing canine TRPM8, icilin activation) was found to be 102%. Further, the pIC50 (HEK293 cells stably expressing canine TRPM8, icilin activation, average of two or more determinations) is 7.82.
Take `CS(=O)(=O)CCN(c1sc2ccccc2c1Br)S(=O)(=O)c1ccccc1` [Compound 239, N-(3-Bromo-benzo[b]thiophen-2-yl)-N-(2-methanesulfonyl-ethyl)-benzenesulfonamide]: the pIC50 under setting [2] is 7.04. Also, the inhibition at 0.5 µM under setting [3] turned out to be 96%.
In the case of `CCS(=O)(=O)N(CCOC(C)(C)C)c1sc2ccccc2c1C` [Compound 110, N-(2-tert-Butoxy-ethyl)-N-(3-methyl-benzo[b]thiophen-2-yl)-ethanesulfonamide], the pIC50 under setting [2] is 8.14. Moreover, the inhibition at 0.2 µM under setting [1] came out at 97%.
The matching figures for `COC(=O)c1ccc(S(=O)(=O)N(Cc2ccc(OC(F)(F)F)cc2)c2sc3ccccc3c2C2CC2)cc1` [Compound 753, N-(3-Cyclopropyl-benzo[b]thiophen-2-yl)-N-(4-trifluoromethoxy-benzyl)-4-carbomethoxy-benzenesulfonamide]: 7.57 and 69%.
For `O=S(=O)(c1cccnc1)N(Cc1cc(Cl)ccc1F)c1sc2ccccc2c1Br` [Compound 324, N-(3-Bromo-benzo[b]thiophen-2-yl)-N-(2-fluoro-5-chloro-benzyl)-pyridin-3-ylsulfonamide], under setting [2], the pIC50 was 7.82. For the same compound, the inhibition at 0.2 µM under setting [1] was 100%.
For `N#Cc1cccc(S(=O)(=O)N(CCC(F)(F)F)c2cc3ccccc3s2)c1` [Compound 573, N-(Benzo[b]thiophen-2-yl)-N-(3,3,3-trifluoro-propyl)-3-cyano-benzenesulfonamide], the inhibition at 0.2 µM under setting [1] worked out at 28%.
For `CSCCN(c1cc2ccccc2s1)S(=O)(=O)c1ccccc1` [Compound 120, N-(Benzo[b]thiophen-2-yl)-N-(2-methylsulfanyl-ethyl)-benzenesulfonamide], the pIC50 under setting [2] was 6.81. For the same compound, the inhibition at 0.2 µM under setting [1] came to 75%.
Take `CC(O)C1=C(N(Cc2ccc(F)c(F)c2)S(=O)(=O)c2ccccc2)S(=O)(=O)c2ccccc21` (centres unmarked) [Compound 464, N-(3,4-Difluoro-benzyl)-N-[3-(1-hydroxy-ethyl)-1,1-dioxo-benzo[b]thiophen-2-yl]-benzenesulfonamide]: the pIC50 under setting [2] is 8.15. Besides, the inhibition at 0.2 µM under setting [1] came to 102%.
The matching figures for `Cc1c(N(Cc2ccc(F)c(C(F)(F)F)c2)S(=O)(=O)CCCC(C)(C)O)sc2ccccc12` [Compound 759, N-(4-Fluoro-3-trifluoromethyl-benzyl)-N-(3-methyl-benzo[b]thiophen-2-yl)-4-hydroxy-4-methyl-pentane-1-sulfonamide]: 7.74 and 101%.
Turning to `COC(=O)c1cccc(S(=O)(=O)N(Cc2ccc(F)c(C(F)(F)F)c2)c2cc3ccccc3s2)c1` [Compound 136, N-(Benzo[b]thiophen-2-yl)-N-(4-fluoro-3-trifluoromethyl-benzyl)-3-carbomethoxy-benzenesulfonamide], the inhibition at 0.2 µM under setting [1] worked out at 40%.
Consider `CNS(=O)(=O)N(Cc1ccc(F)c(C(F)(F)F)c1)c1sc2ccccc2c1Cl` [Compound 309, N-(3-Chloro-benzo[b]thiophen-2-yl)-N-(4-fluoro-3-trifluoromethyl-benzyl)-N′-methyl-sulfamide], for which the pIC50 under setting [2] is 7.26. Further, the inhibition at 0.2 µM under setting [1] came to 93%.
